Experimental data: patent US20100168133A1, “USE OF SUBSTITUTED QUINOLINE DERIVATIVES FOR THE TREATMENT OF DRUG RESISTANT MYCOBACTERIAL DISEASES” (priority 2004, published 2010)
≈ marks a conversion by molar mass, not a printed value.

Test system: 73 M. tuberculosis strains (41 fully susceptible, 32 MDR)
Test: microbe, parasite or virus in culture
Format: cell-based

COc1nc2ccc(Br)cc2cc1[C@@H](c1ccccc1)[C@@](O)(CCN(C)C)c1cccc2ccccc12 [Compound 12, (αS,βR)-6-bromo-α-[2-(dimethylamino)ethyl]-2-methoxy-α-1-naphthalenyl-β-phenyl-3-quinolineethanol]
difference in MIC between fully susceptible and MDR M. tuberculosis strains: No difference in MIC
MIC (Mycobacterium tuberculosis, 504 h, the majority of the 73 strains, agar plates, 36° C., 3 weeks): 0.032 µg/mL (≈ 0.0576 µM)
concentrations at which no growth was seen (all the tested strains (73), agar plates, 36° C., 3 weeks): higher than 0.064 mg/L
